Laboratory results reported in ChEMBL document CHEMBL1158796, “Hectochlorin and morpholine derivatives from the Thai sea hare, Bursatella leachii” (2005).

Legend:
Type in all cases: functional
Conditions in all cases: read-out: ED50 (the source's name)
KB = assay: Cytotoxicity against human KB cells by SRB assay
NCI-H187 = assay: Cytotoxicity against human NCI-H187 cells by SRB assay
[1] = Cytotoxicity against human BC cells by SRB assay

## C[C@@H]1C(=O)O[C@@H](C(C)(C)O)c2nc(cs2)C(=O)OC(C)(C)[C@H](O)c2nc(cs2)C(=O)O[C@H]1CCCC(C)(Cl)Cl [DEACETYLHECTOCHLORIN]
KB
  EC50: 310 nM
NCI-H187
  EC50: 320 nM
[1]
  EC50: 1030 nM

## CC(=O)O[C@@H]1c2nc(cs2)C(=O)O[C@@H](CCCC(C)(Cl)Cl)[C@H](C)C(=O)O[C@@H](C(C)(C)O)c2nc(cs2)C(=O)OC1(C)C [HECTOCHLORIN]
KB
  EC50: 860 nM
NCI-H187
  EC50: 1200 nM
